The test deals with MDA-MB-436 cells. Nature of the test: Growth inhibition assay against BRCA mutant human breast cancer MDA-MB-436 cell line (CCK-8). It counts as cell-based. Particulars: proliferation of MDA-MB-436 cells, 7 days.

The structures appear in SMILES notation.

As for `CNC(=O)c1ccc(N2CCN(Cc3ccc4c(c3)[nH]c(=O)c3cn[nH]c34)CC2)c(C)n1` [Example 7, 7-((4-(2-methyl-6-(methylcarbamoyl)pyridin-3-yl)piperazin-1-yl)methyl)-1,5-dihydro-4H-pyrazolo[4,3-c]quinolin-4-one], for the setting “Homo sapiens, MDA-MB-436, […]”, the IC50 came to 5.22 nM.
Compound `CNC(=O)c1ccc(N2CCN(Cc3cc4[nH]c(=O)c5ocnc5c4cc3F)CC2)c(F)n1` [Example 94, 7-((4-(2-fluoro-6-(methylcarbamoyl)pyridin-3-yl)piperazin-1-yl)methyl)-8-fluorooxazolo[5,4-c]quinolin-4(5H)-one] showed an IC50 (Homo sapiens, MDA-MB-436, […]) of more than 100 nM.
Compound `CNC(=O)c1ccc(N2CCN(Cc3ccc4c([nH]c(=O)c5c(Cl)cnn54)c3F)CC2)c(C)n1` [Example 59, 7-((4-(2-methyl-6-(methylcarbamoyl)pyridin-3-yl)piperazin-1-yl)methyl)-6-fluoro-3-chloro-pyrazolo[1,5-a]quinoxalin-4(5H)-one] had an IC50 (Homo sapiens, MDA-MB-436, […]) of 2.13 nM. That is a single-digit nanomolar value.
The same measure, in the same setting: under `CNC(=O)c1ccc(N2CCN(Cc3ccc4c([nH]c(=O)n5ccnc45)c3F)CC2)c(C)n1` [Example 50, 8-((4-(2-methyl-6-(methylcarbamoyl)pyridin-3-yl)piperazin-1-yl)methyl)-7-fluoroimidazo[1,2-c]quinazolin-5(6H)-one] stands 23.6 nM; under `Cc1cnn2c1c(=O)[nH]c1c(F)c(CN3CCN(c4ccc(-c5ncc[nH]5)nc4)CC3)ccc12` [Example 158, 7-((4-(6-(1H-imidazol-2-yl)pyridin-3-yl)piperazin-1-yl)methyl)-6-fluoro-3-methylpyrazolo[1,5-a]quinoxalin-4(5H)-one], 98.2 nM; under `CNC(=O)c1ccc(N2CCN(Cc3ccc4c([nH]c(=O)c5c(C)cnn54)c3F)CC2)c(C2CC2)n1` [Example 160, 7-((4-(2-cyclopropyl-6-(methylcarbamoyl)pyridin-3-yl)piperazin-1-yl)methyl)-6-fluoro-3-methylpyrazolo[1,5-a]quinoxalin-4(5H)-one], more than 100 nM.
The compound `CNC(=O)c1ccc(N2CCN(Cc3ccc4c([nH]c(=O)n5nccc45)c3F)CC2)c(C)n1` [Example 119, 8-((4-(2-methyl-6-(methylcarbamoyl)pyridin-3-yl)piperazin-1-yl)methyl)-7-fluoropyrazolo[1,5-c]quinazolin-5(6H)-one] returned an IC50 of 7.87 nM.
With `CNC(=O)c1ccc(N2CCN(Cc3ccc4c(c3)[nH]c(=O)c3c4ccn3C)CC2)c(C)n1` [Example 11, 7-((4-(2-methyl-6-(methylcarbamoyl)pyridin-3-yl)piperazin-1-yl)methyl)-3-methyl-3,5-dihydro-4H-pyrrolo[2,3-c]quinolin-4-one], for the setting “Homo sapiens, MDA-MB-436, […]”, half-maximal inhibition (IC50) required 11.3 nM.
For `CNC(=O)c1ccc(N2CCN(Cc3ccc4c([nH]c(=O)c5c(C(C)C)cnn54)c3F)CC2)c(F)n1` [Example 203, 7-((4-(2-fluoro-6-(methylcarbamoyl)pyridin-3-yl)piperazin-1-yl)methyl)-3-isopropyl-6-fluoropyrazolo[1,5-a]quinoxalin-4(5H)-one], the IC50 (Homo sapiens, MDA-MB-436, […]) was more than 100 nM.
Regarding `CNC(=O)c1ccc(N2CCN(Cc3ccc4c([nH]c(=O)c5cn(C)nc54)c3F)CC2)c(C)n1` [Example 88, 7-((4-(2-methyl-6-(methylcarbamoyl)pyridin-3-yl)piperazin-1-yl)methyl)-6-fluoro-2-methyl-2,5-dihydro-4H-pyrazolo[4,3-c]quinolin-4-one], for the setting “Homo sapiens, MDA-MB-436, […]”, the midpoint of inhibition, the IC50, lay at 21.7 nM.
On the same count and under the same terms, under `CNC(=O)c1ccc(N2CCN(Cc3cc4[nH]c(=O)c5c(C)cnn5c4cc3F)CC2)c(Cl)n1` [Example 170, 8-fluoro-7-((4-(2-chloro-6-(methylcarbamoyl)pyridin-3-yl)piperazin-1-yl)methyl)-3-methylpyrazolo[1,5-a]quinoxalin-4(5H)-one] stands 18.5 nM.
`CNC(=O)c1ccc(N2CCN(Cc3ccc4c(c3)[nH]c(=O)c3ccn(C)c34)CC2)c(F)n1` [Example 24, 7-((4-(2-fluoro-6-(methylcarbamoyl)pyridin-3-yl)piperazin-1-yl)methyl)-1-methyl-1,5-dihydro-4H-pyrrolo[3,2-c]quinolin-4-one]: under “Homo sapiens, MDA-MB-436, […]”, the IC50 came out at 1.11 nM.
In turn, `CNC(=O)c1ccc(N2CCN(Cc3ccc4c([nH]c(=O)c5c(C)cnn54)c3C)CC2)c(F)n1` [Example 171, 7-((4-(2-fluoro-6-(methylcarbamoyl)pyridin-3-yl)piperazin-1-yl)methyl)-3,6-dimethylpyrazolo[1,5-a]quinoxalin-4(5H)-one] showed a half-maximal inhibitory concentration (IC50) (Homo sapiens, MDA-MB-436, […]) of 14.4 nM.
For the setting “Homo sapiens, MDA-MB-436, […]”, `CNC(=O)c1ccc(N2CCN(Cc3cc4[nH]c(=O)c5c(C)noc5c4cc3F)CC2)c(F)n1` [Example 97, 7-((4-(2-fluoro-6-(methylcarbamoyl)pyridin-3-yl)piperazin-1-yl)methyl)-3-methyl-8-fluoroisoxazolo[4,5-c]quinolin-4(5H)-one] had a concentration for half-maximal inhibition (IC50) of 9.79 nM.
On the same count and under the same terms, the value for `CNC(=O)c1ccc(N[C@@H]2CCN(Cc3ccc4c([nH]c(=O)c5c(C)cnn54)c3F)C2)cn1` [Example 134, (R)-6-fluoro-3-methyl-7-((3-((6-(methylcarbamoyl)pyridin-3-yl)amino)pyrrolidin-1-yl)methyl)pyrazolo[1,5-a]quinoxalin-4(5H)-one] was more than 100 nM; that for `O=c1[nH]c2c(F)c(CN3CCN(c4ccc(-c5nnc[nH]5)nc4F)CC3)ccc2c2ccoc12` [Example 110, 7-((4-(2-fluoro-6-(4H-1,2,4-triazol-3-yl)pyridin-3-yl)piperazin-1-yl)methyl)-6-fluorofuro[2,3-c]quinolin-4(5H)-one] was 12.9 nM.
`N#Cc1ccc(N2CCN(Cc3ccc4c([nH]c(=O)c5c(F)cnn54)c3F)CC2)c(F)n1` [Example 195, 7-((4-(2-fluoro-6-cyanopyridin-3-yl)piperazin-1-yl)methyl)-3,6-difluoropyrazolo[1,5-a]quinoxalin-4(5H)-one]: the IC50 (Homo sapiens, MDA-MB-436, […]) was determined as 8.59 nM.
On to `CNC(=O)c1ccc(N2CCN(Cc3ccc4c(c3)[nH]c(=O)c3occc34)CC2)cn1` [Example 113, 7-((4-(6-(methylcarbamoyl)pyridin-3-yl)piperazin-1-yl)methyl)furo[2,3-c]quinolin-4(5H)-one], for which, under “Homo sapiens, MDA-MB-436, […]”, the IC50 is 2.19 nM.
In turn, `CNC(=O)c1ccc(N2CCN(Cc3ccc4c([nH]c(=O)n5nccc45)c3F)CC2)c(F)n1` [Example 73, 8-((4-(2-fluoro-6-(methylcarbamoyl)pyridin-3-yl)piperazin-1-yl)methyl)-7-fluoropyrazolo[1,5-c]quinazolin-5(6H)-one] gave an IC50 (Homo sapiens, MDA-MB-436, […]) of 12.3 nM.
On the same count and under the same terms, the value for `CNC(=O)c1ccc(N2CCN(Cc3ccc4c([nH]c(=O)c5oc(C)cc54)c3F)CC2)c(F)n1` [Example 116, 7-((4-(2-fluoro-6-(methylcarbamoyl)pyridin-3-yl)piperazin-1-yl)methyl)-6-fluoro-2-methylfuro[2,3-c]quinolin-4(5H)-one] was 7.5 nM; that for `CNC(=O)c1ccc(N2CCN(Cc3ccc4c([nH]c(=O)c5c(C)cnn54)c3F)CC2)c(F)c1` [Example 154, 6-fluoro-7-((4-(2-fluoro-4-(methylcarbamoyl)phenyl)piperazin-1-yl)methyl)-3-methylpyrazolo[1,5-a]quinoxalin-4(5H)-one] was 95.9 nM.
Same read-out and setting: the value for `CNC(=O)c1ccc(C2CCN(Cc3ccc4c([nH]c(=O)c5c(C)cnn54)c3F)CC2)c(F)n1` [Example 124, 6-fluoro-7-((4-(2-fluoro-6-(methylcarbamoyl)pyridin-3-yl)piperidin-1-yl)methyl)-3-methylpyrazolo[1,5-a]quinoxalin-4(5H)-one] was 25.5 nM.
Take `CNC(=O)c1ccc(N2CCN(Cc3ccc4c([nH]c(=O)c5c(C)cnn54)c3Cl)CC2)c(F)n1` [Example 174, 6-chloro-7-((4-(2-fluoro-6-(methylcarbamoyl)pyridin-3-yl)piperazin-1-yl)methyl)-3-methylpyrazolo[1,5-a]quinoxalin-4(5H)-one]: 47 nM corresponded to half-maximal inhibition (Homo sapiens, MDA-MB-436, […]) (IC50).
Consider `CNC(=O)c1ccc(N2CCN(Cc3ccc4c(c3)[nH]c(=O)c3ccoc34)CC2)c(F)n1` [Example 114, 7-((4-(2-fluoro-6-(methylcarbamoyl)pyridin-3-yl)piperazin-1-yl)methyl)furo[3,2-c]quinolin-4(5H)-one], for which the concentration for half-maximal inhibition (IC50) (Homo sapiens, MDA-MB-436, […]) was determined as 1.32 nM.
On to `CNC(=O)c1ccc(N2CCN(Cc3ccc4c([nH]c(=O)c5occc54)c3F)CC2)cn1` [Example 148, 6-fluoro-7-((4-(6-(methylcarbamoyl)pyridin-3-yl)piperazin-1-yl)methyl)furo[2,3-c]quinolin-4(5H)-one], for which, for the setting “Homo sapiens, MDA-MB-436, […]”, the IC50 was determined as 29.2 nM.
`CNC(=O)c1ccc(N2CCN(Cc3ccc4c([nH]c(=O)c5c(C)cnn54)c3Cl)CC2)c(Cl)n1` [Example 176, 6-chloro-7-((4-(2-chloro-6-(methylcarbamoyl)pyridin-3-yl)piperazin-1-yl)methyl)-3-methylpyrazolo[1,5-a]quinoxalin-4(5H)-one] gave an IC50 (Homo sapiens, MDA-MB-436, […]) of more than 100 nM.
Compound `CNC(=O)c1ccc(N2CCN(Cc3ccc4c([nH]c(=O)c5c(F)cnn54)c3F)C[C@H]2C)c(F)n1` [Example 196, (R)-7-((4-(2-fluoro-6-(methylcarbamoyl)pyridin-3-yl)-3-methylpiperazin-1-yl)methyl)-3-6-difluoropyrazolo[1,5-a]quinoxalin-4(5H)-one] gave an IC50 (Homo sapiens, MDA-MB-436, […]) of 15.4 nM.
The compound `Cc1cnn2c1c(=O)[nH]c1c(F)c(CN3CCN(c4ccc(C(=O)N[C@@H]5CCOC5)nc4F)CC3)ccc12` [Example 156, (R)-6-fluoro-7-((4-(2-fluoro-6-((tetrahydrofuran-3-yl)carbamoyl)pyridin-3-yl)piperazin-1-yl)methyl)-3-methylpyrazolo[1,5-a]quinoxalin-4(5H)-one] came in with an IC50 (Homo sapiens, MDA-MB-436, […]) of 6.08 nM.
Still for that read-out and setting: the value for `CNC(=O)c1ccc(N2CCN(Cc3ccc4c([nH]c(=O)c5ocnc54)c3F)CC2)c(F)n1` [Example 95, 7-((4-(2-fluoro-6-(methylcarbamoyl)pyridin-3-yl)piperazin-1-yl)methyl)-6-fluorooxazolo[5,4-c]quinolin-4(5H)-one] was more than 100 nM; that for `CCNC(=O)c1ccc(N2CCN(Cc3ccc4c([nH]c(=O)c5c(C)cnn54)c3F)CC2)c(F)n1` [Example 125, 7-((4-(2-fluoro-6-(ethylcarbamoyl)pyridin-3-yl)piperazin-1-yl)methyl)-6-fluoro-3-methylpyrazolo[1,5-a]quinoxalin-4(5H)-one] was 7.24 nM.

What is called IC50 is the concentration that gives 50% inhibition. Low values mean greater potency, high ones weaker potency.

Source of the values: patent US20250215013A1, “SUBSTITUTED TRICYCLIC COMPOUNDS AS PARP INHIBITORS AND THE USE THEREOF” (IMPACT THERAPEUTICS (SHANGHAI), INC., priority 2022, published 2025).
